Assay [1] concerns the target T1, Sphingomyelin phosphodiesterase (Homo sapiens, UniProt P17405).
T1 sequence (P17405 whole entry): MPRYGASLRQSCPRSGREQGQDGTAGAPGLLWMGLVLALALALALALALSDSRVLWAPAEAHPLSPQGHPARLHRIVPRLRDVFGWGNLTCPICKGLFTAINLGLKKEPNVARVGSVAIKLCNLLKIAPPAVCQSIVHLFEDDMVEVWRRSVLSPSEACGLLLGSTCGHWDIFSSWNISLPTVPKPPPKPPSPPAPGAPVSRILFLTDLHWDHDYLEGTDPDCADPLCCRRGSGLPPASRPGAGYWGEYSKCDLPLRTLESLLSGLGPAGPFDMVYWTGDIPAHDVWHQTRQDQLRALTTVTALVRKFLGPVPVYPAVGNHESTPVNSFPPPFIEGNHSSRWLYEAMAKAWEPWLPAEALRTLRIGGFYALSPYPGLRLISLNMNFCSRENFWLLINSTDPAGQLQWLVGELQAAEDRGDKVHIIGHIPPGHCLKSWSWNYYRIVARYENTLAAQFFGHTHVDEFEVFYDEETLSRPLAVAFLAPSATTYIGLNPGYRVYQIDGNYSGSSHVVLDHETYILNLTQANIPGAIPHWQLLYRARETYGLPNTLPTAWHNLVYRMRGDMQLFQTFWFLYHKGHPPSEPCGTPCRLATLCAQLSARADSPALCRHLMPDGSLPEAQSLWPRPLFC
The experiment in a line: Inhibitory activity against Acid sphingomyelinase.

The target in assay [2] is T2, Sphingomyelin phosphodiesterase 2 (Homo sapiens, UniProt O60906).
T2 sequence (O60906 whole entry): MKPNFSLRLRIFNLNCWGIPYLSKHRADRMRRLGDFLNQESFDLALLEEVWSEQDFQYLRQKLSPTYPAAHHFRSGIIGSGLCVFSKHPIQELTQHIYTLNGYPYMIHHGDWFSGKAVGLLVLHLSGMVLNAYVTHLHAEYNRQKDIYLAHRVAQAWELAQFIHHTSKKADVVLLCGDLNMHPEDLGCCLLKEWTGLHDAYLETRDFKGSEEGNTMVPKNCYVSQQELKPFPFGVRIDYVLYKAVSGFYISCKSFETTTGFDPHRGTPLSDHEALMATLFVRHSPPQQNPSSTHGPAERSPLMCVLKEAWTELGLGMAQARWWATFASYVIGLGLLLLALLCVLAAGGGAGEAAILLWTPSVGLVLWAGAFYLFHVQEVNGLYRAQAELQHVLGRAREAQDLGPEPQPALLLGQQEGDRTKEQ
The experiment in a line: Inhibitory activity against NSMase (neutral sphingomyelinase).

In the case of `COc1c(O)cc2oc3cc(O)c(CC=C(C)C)c(O)c3c(=O)c2c1CC=C(C)C` [MANGOSTIN], the IC50 – broadly, the concentration that gives 50% inhibition – in assay [1] was 12.5 µM; in assay [2], 113 µM.
`COc1c(O)cc2oc3cc(O)cc(O)c3c(=O)c2c1CC=C(C)C`: the IC50 in assay [1] is 15.3 µM; in assay [2] it was 26 µM.
`COc1cc2c(=O)c3c(O)c(CC=C(C)C)c(O)cc3oc2cc1O`: the results for the half-inhibitory concentration (IC50) in assay [1] and in assay [2] were 101 µM and more than 292 µM, respectively.
In the same order, the values of `COc1c(O)cc(O)c(C(=O)c2c(O)cc(O)cc2O)c1CC=C(C)C` are 14.7 µM and 28.3 µM.
Turning to `COc1c(O)cc(O)c(C(=O)c2c(O)cc(O)c(CC=C(C)C)c2O)c1CC=C(C)C`, the IC50 in assay [1] was 38.5 µM; in assay [2], 113 µM.
As to `COc1cc(C(=O)c2c(O)cc(O)c(CC=C(C)C)c2O)c(O)cc1O`, the IC50 in assay [1] was 66.6 µM; in assay [2], 201 µM.
